# Key:
# [1] = molecular target: 2-hydroxybiphenyl 3-monooxygenase (HbpA) from Pseudomonas azelaica HBP1 (Pseudomonas azelaica HBP1); assay: crystal structure; P1 crystals with four molecules in the asymmetric unit (one tetramer); apo form and FAD complex (crystals soaked in 1 mM FAD); grown in 18 % PEG 3350, 0.15 M KSCN, Bis-Tris propane pH 5.5, protein 10 mg/mL
# [2] = molecular target: T1, HbpA; 2-hydroxybiphenyl 3-monooxygenase (Pseudomonas nitroreducens, UniProt O06647); assay: UV spectrophotometry of NADH oxidation at […] nm; type: biochemical; conditions: co-substrate NADH; air-saturated buffer; read-out: WT
# T1 construct: full length with uncleaved N-terminal His6 tag, spacer and 3C site (21 residues longer than native); pET-YSBLIC-3C, E. coli BL21(DE3); homotetramer; tag not removed for crystals
# T1 sequence (O06647 1-586): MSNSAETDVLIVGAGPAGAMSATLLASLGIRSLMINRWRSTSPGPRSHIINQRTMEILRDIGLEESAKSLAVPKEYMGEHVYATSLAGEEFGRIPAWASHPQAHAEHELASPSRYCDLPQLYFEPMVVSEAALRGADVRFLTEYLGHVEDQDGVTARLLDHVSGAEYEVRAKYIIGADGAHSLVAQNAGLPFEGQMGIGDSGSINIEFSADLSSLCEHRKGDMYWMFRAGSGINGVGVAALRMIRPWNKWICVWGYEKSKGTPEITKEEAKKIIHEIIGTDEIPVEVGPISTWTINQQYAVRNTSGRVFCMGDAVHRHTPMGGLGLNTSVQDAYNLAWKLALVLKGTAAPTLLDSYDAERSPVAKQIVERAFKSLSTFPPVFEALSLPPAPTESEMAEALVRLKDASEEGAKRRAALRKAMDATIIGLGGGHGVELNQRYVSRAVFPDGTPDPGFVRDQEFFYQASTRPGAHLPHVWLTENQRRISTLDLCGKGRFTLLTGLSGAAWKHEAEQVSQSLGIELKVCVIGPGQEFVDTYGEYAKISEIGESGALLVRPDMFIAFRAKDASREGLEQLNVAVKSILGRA
# [3] = molecular target: T1, HbpA; 2-hydroxybiphenyl 3-monooxygenase; assay: X-ray crystal structure, […] Å, FAD soak; type: binding; conditions: crystals soaked in 1 mM FAD; flavin in the "in" position
molecule,measurement,setting,value
2-hydroxybiphenyl 3-monooxygenase (HbpA) from Pseudomonas azelaica HBP1 (enzyme),stoichiometry N,[1],4
Oc1ccccc1-c1ccccc1 [2HBP],Km,[2],3.3 ± 0.2 µM
Cc1cc2nc3c(=O)[nH]c(=O)nc-3n(C[C@H](O)[C@H](O)[C@H](O)COP(=O)(O)OP(=O)(O)OC[C@H]3O[C@@H](n4cnc5c(N)ncnc54)[C@H](O)[C@@H]3O)c2cc1C [FAD],"X-ray crystal structure, 2.03 Å, FAD soak",[3],both apo-HbpA and the FAD complex have been deposited in the Protein Data Bank

# — publication PMC4515095, “Structures of the Apo and FAD-Bound Forms of 2-Hydroxybiphenyl 3-monooxygenase (HbpA) Locate Activity Hotspots Identified by Using Directed Evolution” (Chembiochem, 2015)
